Each structure is given as a SMILES string.

The subject of data set [1] is Patients with Sjogren's syndrome. As to conditions: 0.03%; cited from earlier work.
In another data set the test system is NF-κB signaling pathway. As to conditions: 0.025% applied topically to the eye, mice; cited from earlier work.
In a further data set the test system is dry eye dogs. To be noted: 0.02% drops applied topically in the eye; cited from earlier work.
The conditions of data set [2]: cited from earlier work.
Data set [3] relates to corneal epithelial barrier of mice suffering dry eye. The data set is described as follows: Corneal OGD fluorescent staining in dry eye mouse model. Format: in vivo, C57BL/6 mice. To be noted: 0.1% eye drop, 4 times a day on both eyes. As to the method:
(§1) 1. Establish a dry eye mouse model: Female C57BL/6 mice of 10-12 weeks old were injected subcutaneously with scopolamine 0.5 mg/0.2 mL four times a day and kept in a dry environment for 5 days (RH: 30±3; T: 23-25° C.); normal control group was maintained in normal environment (RH: 60%-80%; T: 23-25° C.).
(§2) Preparation of mizoribine eye drop: dry eye treatment group used 0.1% of mizoribine eye drop prepared by the method of Embodiment 1.
(§3) Eye drop method: Eye drop treatment was performed using the above-mentioned eye drops 4 times a day on both eyes.
1. Corneal OGD fluorescent staining: mice were sacrificed, and 0.5 μl of Oregongreen-dextran (OGD) was dropped into the conjunctival sac of mice with a pipette, manual blinking was performed, and the conjunctival sac was washed with 1 mL of normal saline 1 minute later. The corneal epithelial fluorescence staining was observed and shot under a living fluorescence microscope.

For data set [4], the system named is conjunctival goblet cells. Description: PAS staining of conjunctival goblet cells in dry eye mouse model. It counts as in vivo, C57BL/6 mice. As to conditions: 0.1% eye drop, compared with the dry eye group. As to the method: as §1, §2, §3
2. PAS staining of conjunctival goblet cells: Paraffin specimens of the whole eyeballs (conjunctival sac) of the mice were cut into 5 um sections and stained with periodic acid-Schiff (PAS) reagent to observe the morphology and number of conjunctival goblet cells.

Data set [5] relates to conjunctival CD4+T cell infiltration. Description: Conjunctival CD4+T cell staining in dry eye mouse model. As to conditions: 0.1% eye drop, compared with the dry eye group. It counts as in vivo, C57BL/6 mice. Here is the method: as §1, §2, §3
3. Conjunctival CD4+T cell staining: fixing frozen sections by acetone at −20° C. for 10 minutes, disrupting with 0.2% of Triton-X PBS for 10 minutes, and using 0.3% of H2O2 to eliminate endogenous peroxidase, blocking with 20% of normal goat serum for 45 minutes. The primary anti-CD4 was incubated for 1 hour at room temperature. After extensive washing (digestion), the biotinylated (second) antibody was incubated for 30 minutes. Finally, a Vectastain Elite ABC kit was used to develop color and stain the nucleus.

Another data set relates to IFN-γ. Description: Real-Time PCR of conjunctival RNA in dry eye mouse model. It counts as in vivo, C57BL/6 mice. To be noted: 0.1% eye drop, compared with the dry eye group. Here is the method:
as §1, §2, §3
(§4) Prepare the PCR reaction solution according to the following components:
(§5) Three-step PCR amplification standard procedure:
(§6) Stage 1: Pre-denaturation cycle number: 195° C., 30 sec.
(§7) Stage 2: number of PCR reaction cycles: 4095° C. for 5 sec. and 60° C. for 34 sec.
(§8) Stage 3: Dissolving curve
(§9) The relative expression level of the gene was analyzed by the relative Ct method, and the specific expression of the target gene was calculated by the following formula, that is to say, the relative expression level=2^−ΔΔCt; wherein −ΔΔCt=−(ΔCt, q−ΔCt, cb), ΔCt, q=Ct,x−Ct, r ΔCt, cb=Ct, cb−Ct, r, where r=reference gene, Cb=calibration value, X=target gene, and cycle threshold (C) is determined through primary signal (fluorescence).

The subject of the next data set is IL-13. The description is as above. Format: in vivo, C57BL/6 mice. To be noted: 0.1% eye drop, compared with the dry eye group. Here is the method: as §1, §2, §3, §4, §5, §6, §7, §8, §9
In another data set the test system is IL-1β. The data set is described as above. Format: in vivo, C57BL/6 mice. As to conditions: 0.1% eye drop, compared with the dry eye group. Here is the method: as §1, §2, §3, §4, §5, §6, §7, §8, §9
The test system of the next data set is TNF-α. The description is as above. It counts as in vivo, C57BL/6 mice. As to conditions: 0.1% eye drop, compared with the dry eye group. Here is the method: as §1, §2, §3, §4, §5, §6, §7, §8, §9

Regarding `C=CC[C@@H]1/C=C(\C)C[C@H](C)C[C@H](OC)[C@H]2O[C@@](O)(C(=O)C(=O)N3CCCC[C@H]3C(=O)O[C@H](/C(C)=C/[C@@H]3CC[C@@H](O)[C@H](OC)C3)[C@H](C)[C@@H](O)CC1=O)[C@H](C)C[C@@H]2OC` [FK506, tacrolimus], the tear film stability entry in data set [1] is recorded as “improve tear film stability”. Also, in the data set with NF-κB signaling pathway, the “activation of NF-κB signaling pathway” value is listed as “inhibit the activation of NF-κB signaling pathway” and the “ocular surface signs of dry eye” value was “reduce the ocular surface signs of dry eye”. The “amount of tear secretion” value in the data set on dry eye dogs is recorded as “significantly increase”. In addition, in data set [2], the solubility in water entry is on record as “hardly soluble in water”.
For `NC(=O)c1ncn([C@@H]2O[C@H](CO)[C@@H](O)[C@H]2O)c1O` [mizoribine], the “corneal flaky staining (OGD)” value in data set [3] is recorded as “no flaky staining was observed”. For the same compound, the “number of corneal punctiform staining (OGD)” value in data set [3] (compared with the dry eye group) is recorded as “significantly reduced”. Moreover, the “number of conjunctival goblet cells (PAS)” value in data set [4] is recorded as “significant increase”. For the same compound, in data set [5], the “proportion of brown-yellow cells (conjunctival CD4+T cells)” value was “significantly reduced”. Further, in the data set with IFN-γ, the “expression of conjunctival IFN-γ” value was “significantly decreased”. For the same compound, the “expression of conjunctival IL-13” value in the data set on IL-13 is on record as “significantly decreased”. The “expression of conjunctival IL-1β” value in the data set with IL-1β is recorded as “significantly decreased”. Further, the “expression of conjunctival TNF-α” value with TNF-α is listed as “significantly decreased”.

The record behind these values is US20200171066A1, “EYE DROP FOR TREATING DRY EYE” (Xiamen University, priority 2017, published 2020).
